Read-outs that look alike come from different tables or passages of the source.

One assay relates to Cluster 1 (213 genes). Briefly: RNAseq whole blood transcriptomics, WGCNA Cluster 1 and pathway analysis. On the set-up: species or system human. How it is done: In order to gain insights into ANAVEX 2-73 response pathways, during the Phase 2 study, patients' DNA and RNA sequencing were analyzed. Transcriptomic samples of 65 patients enrolled in either High Dose or Mid Dose arms were collected at baseline and at the end of treatment (Week 14). The expression of 14,150 genes was measured. No transformation was applied to the TPM values. Values associated with a with RIN s 4.0 were discarded. The actual dose of ANAVEX 2-73 (blarcamesine) that was given to each patient during the trial was assessed and integrated into the database. To characterize the gene dysregulations, a pathway database was built using an aggregation of public databases including KEGG, Panther, Allen, Brain Atlas, Gene Ontology, and Reactome.
The genes were clustered together using WGCNA, starting from their correlation of TPM expression values across samples. Seventeen clusters with size ranging from 13 to 11,190 genes were obtained through this gene clusterisation. The TPM expression values of genes in clusters were then aggregated in a single “eigengene” for each cluster. This eigengene served as a representant of the overall dysregulation of the cluster. Secondly, a cluster filtering was performed, wherein patients' arm and dose information were taken into account based on mixed effect models. For each cluster, the eigengene was used as target variable of a linear mixed effect model with 3 covariates: ActualDose, Patient, and timepoint. For each cluster, the contrast ActualDose, i.e. treated vs placebo were evaluated across all timepoints. P-values were obtained with Dunnett's test. Regardless of the cluster and pathway, pathways with less than 4 genes in a cluster were removed, to compensate for the large variability of cluster size and corresponding variability of number of pathways identified in each clusters. The ratio between cluster size and number of pathways was calculated, and top 2 clusters were retained for further Analysis. Cluster 1 contained 213 genes (n1=213) and 37 pathways, and Cluster 2 contained 962 genes (n2=962) and 317 pathways. […] Thirdly, the two retained clusters were characterized and underwent pathway analysis. The characterization and analysis were applied to all the genes of the cluster (whole cluster), and to the genes of the clusters that are known to have biological interactions (reduced cluster). In the whole cluster analysis, overrepresented pathways were identified using EnrichR package with the parameters of Fisher's adjusted p-value p<0.05 (Benjamini-Hochberg adjustment for multiple testing) and minimum pathway size 20. In the reduced cluster analysis, genes that have no interaction with any other genes of the cluster were discarded, resulting in a reduced cluster. Pathway analysis was performed on these reduced clusters. False Discovery Rate with adjustment for multiple testing (Benjamini-Hochberg procedure) was used to characterize pathways' over-representation. Known interactions between the genes of the cluster were assessed using STRING database with the parameters of Edge score >0.150, and no text mining edges. Known interactions were obtained from public databases, such as KEGG, Panther, Allen, Brain Atlas, Gene Ontology, and Reactome.
Whole Blood Transcriptomics Analysis (RNAseq) of patients with Parkinson's disease with dementia (PDD) was performed for the ANAVEX®2-73-PDD-001 study (FIG. 1) at two timepoints: Baseline and Week 14 (end of trial). All available RNA samples with […] (RNA integrity number, using 130 samples) were analyzed. The expression of 14,150 genes at these two timepoints were analyzed from both placebo and ANAVEX® 2-73 treated patients.
The above method was performed as illustrated in FIG. 2B. […] Then, the cluster's eigengene3 (one of a set of a genes matrix that tabulates the mRNA or gene expression of the genes across the sample) was used as summary of expression level of the cluster. […]

A further assay concerns SIGMAR1. Briefly: SIGMAR1 levels in PDD-001 patients. The conditions noted are these: PDD-001 study. It counts as in vivo, human. How it is done: The trial enrolled 132 adults, ages 50-85, with PDD, and was successfully concluded in September 2020. Participants, recruited at multiple sites in Spain and Australia, were randomly assigned to one of two doses groups (with an escalating ANAVEX 2-73 dose up to 30 or 50 mg oral capsules) or to a placebo, once daily for 14 weeks (see FIG. 1 for details). The trial's main goals were to assess the therapy's safety and changes in patients' cognitive function, measured using the cognitive drug research computerized assessment system—a test that looks at multiple cognitive skills, such as choice reaction time (choosing between similar objects), vigilance, and episodic memory (remembering new personal experiences or shared information). Secondary goals included changes in patients' motor abilities—assessed with the Movement Disorders Society Unified Parkinson's Disease Rating Scale (MDS-UPDRS) Part III—and sleep quality. […] This sleep disorder is associated with greater cognitive impairment and a higher risk of dementia. […] After 14 weeks, the MDS-UPDRS total score dropped by 10.98 points (indicating an easing in disease severity) in the high-dose group and rose by 3.53 points in the placebo group. This represented an adjusted mean improvement of 14.51 points—surpassing the established, clinically meaningful 7.1 point-cut-off—and a relative improvement of 18.9% over 14 weeks. […]

In assay [1] the test system is Sigma-1 receptor (SIGMAR1). The conditions noted are these: cited from earlier work.

As to `CN(C)CC1CCOC1(c1ccccc1)c1ccccc1.Cl` (centres unmarked) [ANAVEX2-73, tetrahydro-N,N-dimethyl-2,2-diphenyl-3-furanmethanamine hydrochloride], the Overlap was 13/273 with Cluster 1 (213 genes); 15/369 with Cluster 1 (213 genes) (genes of pathway in Cluster 1/genes in pathway, KEGG 2021, Alzheimer disease); 14/364 in the assay on Cluster 1 (213 genes) (genes of pathway in Cluster 1/genes in pathway, KEGG 2021, Amyotrophic lateral sclerosis); 9/203 in the assay with Cluster 1 (213 genes) (genes of pathway in Cluster 1/genes in pathway, KEGG 2021, Diabetic cardiomyopathy); 13/306 in the assay on Cluster 1 (213 genes) (genes of pathway in Cluster 1/genes in pathway, KEGG 2021, Huntington disease); 8/155 in the assay with Cluster 1 (213 genes) (genes of pathway in Cluster 1/genes in pathway, KEGG 2021, Non-alcoholic fatty liver disease). For the same compound, the Overlap in the assay with Cluster 1 (213 genes) (genes of pathway in Cluster 1/genes in pathway, KEGG 2021, Oxidative phosphorylation) was 8/133; in the assay on Cluster 1 (213 genes) (genes of pathway in Cluster 1/genes in pathway, KEGG 2021, Parkinson disease), 12/249; in the assay on Cluster 1 (213 genes) (genes of pathway in Cluster 1/genes in pathway, KEGG 2021, Pathways of neurodegeneration) it was 15/475; with Cluster 1 (213 genes) (genes of pathway in Cluster 1/genes in pathway, KEGG 2021, Proteasome), 4/46. The “Number of pathways significantly overrepresented in first cluster” value in the assay on Cluster 1 (213 genes) (among its 37 pathways) was 10 pathways. Moreover, in the assay with SIGMAR1, the SIGMAR1 levels entry is reported as “significant increase”. The “Association of rise in SIGMAR1 levels with clinical response” value in the assay with SIGMAR1 (attention measures, MDS-UPDRS total and Part III) was “significantly associated with improvements in attention measures, and reductions in both MDS-UPDRS total and MDS-UPDRS Part III (motor scores)”. The “Sigma-1 receptor (SIGMAR1) activity” value in assay [1] was “agonist”.

These data come from patent publication US20260325481A1, “THERAPY SELECTION AND TREATMENT OF NEURODEGENERATIVE DISORDERS” (Anavex Life Sciences Corp., priority 2022, published 2026).
